Data published in patent US6878742B2, “Heterocyclic sulfonamide inhibitors of beta amyloid production” (Wyeth, priority 2000, dated 2005).
Where “and” joins values, the source holds several entries; their conditions need not be identical. Equal values may be shown once.

Tested on: amyloid precursor protein (APP) proteolysis
Assay: Repressor Release Assay (RRA)
Assay type: cell-based
Conditions: luciferase activity over diluent control; for fold induction at 20 µg/mL / fold induction at 10 µg/mL: read-out: APPI Fold Increase
Experimental: The beta amyloid inhibitory activity of many of the compounds of the present invention has been determined using the Repressor Release Assay (RRA). See, Table 23 below. A compound is considered active in RRA if it leads to at least a 1.5 fold increase in luciferase activity at 20 μM and is non-toxic.
The compounds generated as described in Examples 1 through 220 were tested in the RRA in accordance with published techniques [Shuey, D. J., Sheiffele, P., Jones, D., Cockett, M. I., and Quinet, E. M. (1999), “Repressor release: a useful tool for monitoring amyloid precursor protein (APP) proteolysis in mammalian cells”, Society for Neuroscience Abstracts, Vol. 25, 29th Annual Meeting of Society for Neuroscience, Miami Beach, Fla., Oct. 23-28, 1999]. Briefly, this assay is performed as follows.
CHO-K1 cells are cultured in whole DMEM media (DMEM—High Glucose with 10% fetal bovine serum, 1% Non-essential Amino Acids, and 1% Penicillin-Streptomycin) at 37° C. with 5% CO2. Two million cells are plated into 10-cm dishes 24 hrs prior to transfection.
Transient transfections are completed as recommended by Gibco BRL using their Lipofectamine Plus system. First, 6 μg of pRSVO-luc and 6 μg of APP-lacI construct DNA are added to 460 μL Opti-Mem transfection media and incubated with 30 μL Plus reagent for 15 minutes. Then, a lipid mixture of 40 μL Lipofectamine reagent and 460 μL Opti-Mem transfection media is incubated with the DNA-Plus reagent mixture for 15 minutes. During the DNA-lipid incubation, the CHO-K1 cells are washed once and covered in 5.0 mL DMEM media without Penicillin-Streptomycin. The DNA-lipid preparation is then layered onto these cells and incubated at 37° C. overnight.
One and one half million transfected cells per well (100 μL total volume) are plated into sterile, opaque Packard 96-well Cultur-Plates in clear DMEM whole media (DMEM—without phenol red) and incubated at 37° C. with 5% CO2 for 3-5 hours.
Compounds are diluted using two different protocols; one protocol is used for compounds supplied neat (weighed powder in vial) and the other protocol is used for compounds supplied in solution (20 mM in DMSO in 96-well plates). For both protocols, 25 mM Hepes and 25 mM Hepes/1% DMSO are prepared fresh to be used as diluent. The Hepes/DMSO is used as the diluent control on all experimental plates.
The following table depicts the steps for compound dilution (please note that the last step is the addition of compound to cells/media in tissue culture plate):
Because some compounds arrive in 96-well format at 20 mM, the following represents the protocol for their dilution (note that an average molecular weight of these compounds was used to calculate these dilutions and as above, the last step is the addition of compound to cells/media in tissue culture plate):
Once compounds are diluted, they are applied in duplicate on cells in tissue culture plates (prepared above). Cells are incubated with compound at 37° C. with 5% CO2 for an additional 36-48 hours.
Luciferase assays (LucLite reagent, Packard) are performed and are read on a Packard TopCount instrument. Media is removed from each 96-well plate and replaced with 100 μL PBS per well (with Mg^2+ and Ca^2+). An equal volume (100 μL) of the LucLite lysis/substrate buffer is added to each well and the plates are sealed and mixed in the dark on a rotary shaker for 15-30 minutes at room temperature. Luciferase readings are then taken on the TopCount instrument. Measurements are expressed as relative light units (RLU) and are calculated and analyzed in MS Excel as follows.
A compound is considered active in RRA if it leads to at least a 1.5 fold increase in luciferase activity at 20 μM and is non-toxic, as determined by loss of signal (≦0.75 fold increase). Fold increase is the amount of luciferase activity (measured in relative light units) over diluent control. SEM represents the standard error of the mean for fold increase (not shown).

CC[C@@H](C)[C@@H](CO)NS(=O)(=O)c1ccc(Br)s1 [Example 17]
APPI Fold Increase (Conc 1 μg/mL): 2.38 fold | APPI Fold Increase (Conc 3 μg/mL): 3.47 fold | APPI Fold Increase (Conc 10 μg/mL): 3.29 fold | APPI Fold Increase (Conc 20 μg/mL): 6.1 fold and 3.5 fold

CCC[C@@H](O)[C@@H](NS(=O)(=O)c1ccc(Cl)s1)[C@@H](C)CC [Example 187, 5-chloro-N-{(S,R)-2-hydroxy-1-[(S)-1-methylpropyl]pentyl}thiophene-2-sulfonamide]
APPI Fold Increase (Conc 20 μg/mL): 5.7 fold and 3 fold

CCCCC[C@H](C)[C@@H](CO)NS(=O)(=O)c1ccc(Cl)s1 [Example 39, 5-chloro-N-[(1S,2S)-1-(hydroxymethyl)-2-methylheptyl]thiophene-2-sulfonamide]
fold induction at 20 µg/mL (Conc 20 μg/mL): 5.7

5-bromo-N-{(S,S)-1-[(S)-1-hydroxyethyl]-2-methylbutyl}thiophene-2-sulfonamide [Example 190]
APPI Fold Increase (Conc 20 μg/mL): 4.4 fold and 2.6 fold

C=CCOC1CCC([C@@H](CO)NS(=O)(=O)c2ccc(Cl)s2)CC1 (stereo partly drawn) [Example 201, N-{(S)-1-[4-(allyloxy)cyclohexyl]-2-hydroxyethyl}-5-chlorothiophene-2-sulfonamide]
fold induction at 20 µg/mL (Conc 20 μg/mL): 2.2

CCC(NC)[C@@H](CO)NS(=O)(=O)c1ccc(Cl)s1 (stereo partly drawn) [Example 79, 5-Chloro-N-[(1S)-1-(hydroxymethyl)-2-(methylamino)butyl]thiophene-2-sulfonamide]
fold induction at 20 µg/mL (Conc 20 μg/mL): 1.6

CC(C)(C)OC(=O)N1CCC([C@@H](CO)NS(=O)(=O)c2ccc(Cl)s2)CC1 [Example 209, 4-[1-(5-Chloro-thiophene-2-sulfonylamino)-2-hydroxy-ethyl]-piperidine-1-carboxylic acid tert-butyl ester]
fold induction at 20 µg/mL (Conc 20 μg/mL): 2.1

C=CCC(O)(CC=C)[C@@H](NS(=O)(=O)c1ccc(Cl)s1)[C@@H](C)CC [Example 165, N-{(S)-2-allyl-2-hydroxy-1-[(S)-1-methylpropyl]pent-4-enyl}-5-chlorothiophene-2-sulfonamide]
fold induction at 10 µg/mL (Conc 10 μg/mL): 1.73

CCC(C)C(NS(=O)(=O)c1ccc(Cl)s1)C(O)CC (mixture of isomers) [Example 129]
APPI Fold Increase (Conc 3 μg/mL): 1.61 fold | APPI Fold Increase (Conc 10 μg/mL): 7.43 fold and 4.59 fold

CC[C@H](C)[C@H](NS(=O)(=O)c1ccc(Cl)s1)C(O)(CC)CC [Example 166, 5-chloro-N-{(S)-2-ethyl-2-hydroxy-1-[(S)-1-methylpropyl]butyl}thiophene-2-sulfonamide]
fold induction at 10 µg/mL (Conc 10 μg/mL): 1.78

O=S(=O)(NC1(CO)CCc2ccccc21)c1ccc(Cl)s1 (stereo not shown) [Example 179]
APPI Fold Increase (Conc 20 μg/mL): 8.3 fold

O=S(=O)(N[C@H](CO)CSCc1ccccc1)c1ccc(Cl)s1 [Example 101, N-[R-2-(benzylthio)-1-(hydroxymethyl)ethyl]-5-chlorothiophene-2-sulfonamide]
fold induction at 20 µg/mL (Conc 20 μg/mL): 2.7

CC[C@@H](c1ccco1)[C@@H](CO)NS(=O)(=O)c1ccc(Cl)s1 [Example 49, 5-chloro-N-[(1S,2R)-2-(2-furyl)-1-(hydroxymethyl)butyl]thiophene-2-sulfonamide]
fold induction at 20 µg/mL (Conc 20 μg/mL): 6.1

CCCCCC[C@@H](c1ccco1)[C@@H](CO)NS(=O)(=O)c1ccc(Cl)s1 [Example 51, 5-chloro-N-[(1S,2R)-2-(2-furyl)-1-(hydroxymethyl)octyl]thiophene-2-sulfonamide]
fold induction at 20 µg/mL (Conc 20 μg/mL): 4

CC[C@H](C)[C@@H](CO)NS(=O)(=O)c1ccc(I)s1 [Example 207, N-[(1S,2S)-1-(Hydroxymethyl)-2-methylbutyl]-5-iodo-2-thiophenesulfonamide]
fold induction at 20 µg/mL (Conc 20 μg/mL): 5.6

CC[C@@H](CO)NS(=O)(=O)c1ccc(Cl)s1 [Example 100, 5-chloro-N-[(S)-1-(hydroxymethyl)propyl]thiophene-2-sulfonamide]
fold induction at 20 µg/mL (Conc 20 μg/mL): 1.5

CC(=O)N1CCC(CO)(NS(=O)(=O)c2ccc(Cl)s2)CC1 [Example 203, N-[1-Acetyl-4-(hydroxymethyl)piperidin-4-yl]-5-chlorothiophene-2-sulfonamide]
fold induction at 20 µg/mL (Conc 20 μg/mL): 1.5

CCC(O)[C@@H](NS(=O)(=O)c1cccs1)[C@@H](C)CC (stereo partly drawn) [Example 148, N-{(S)-2-hydroxy-1-[(S)-1-methylpropyl]butyl}thiophene-2-sulfonamide]
fold induction at 10 µg/mL (Conc 10 μg/mL): 1.52

CC[C@H](C)[C@@H](/C=N\O)NS(=O)(=O)c1ccc(Cl)s1 [Example 229]
fold induction at 20 µg/mL (Conc 20 μg/mL): 6.3

CCCCC[C@H](c1ccc(OC)cc1)[C@@H](CO)NS(=O)(=O)c1ccc(Br)s1 [Example 64, 5-bromo-N-[(1S,2R)-1-(hydroxymethyl)-2-(4-methoxyphenyl)heptyl]thiophene-2-sulfonamide]
fold induction at 20 µg/mL (Conc 20 μg/mL): 2.9

CCC(CO)(CO)NS(=O)(=O)c1ccc(Br)s1 [Example 108, N-[1,1-bis(hydroxymethyl)propyl]-5-bromothiophene-2-sulfonamide]
fold induction at 20 µg/mL (Conc 20 μg/mL): 2

CC(C)C[C@@H](C)[C@@H](CO)NS(=O)(=O)c1ccc(Br)s1 [Example 56, 5-bromo-N-[(1S,2R)-1-(hydroxymethyl)-2,4-dimethylpentyl]thiophene-2-sulfonamide]
fold induction at 20 µg/mL (Conc 20 μg/mL): 6.8

5-chloro-N-{(S,R)-2-hydroxy-1-[(S)-1-methylpropyl]pent-4-enyl}thiophene-2-sulfonamide [Example 189]
APPI Fold Increase (Conc 20 μg/mL): 8.1 fold and 7.9 fold and 7.2 fold and 4.4 fold

CCCCC[C@H](CC)[C@@H](CO)NS(=O)(=O)c1ccc(Br)s1 [Example 62, 5-bromo-N-[(1S,2S)-2-ethyl-1-(hydroxymethyl)heptyl]thiophene-2-sulfonamide]
fold induction at 20 µg/mL (Conc 20 μg/mL): 4.5

C[C@@H](c1ccccc1)[C@@H](CO)NS(=O)(=O)c1ccc(Cl)s1 [Example 46, 5-chloro-N-[(1S,2S)-1-(hydroxymethyl)-2-phenylpropyl]thiophene-2-sulfonamide]
fold induction at 20 µg/mL (Conc 20 μg/mL): 5.8

CC[C@H](C)[C@@H](CO)NS(=O)(=O)c1ccc(Br)s1 [Example 2]
APPI Fold Increase (Conc 1 μg/mL): 1.79 fold and 1.54 fold | APPI Fold Increase (Conc 3 μg/mL): 2.96 fold and 2.34 fold | APPI Fold Increase (Conc 10 μg/mL): 4.26 fold and 3.2 fold and 3.06 fold | APPI Fold Increase (Conc 20 μg/mL): 4.5 fold and 5.5 fold and 6.3 fold

CCCCCC[C@@H](CCCCC)[C@@H](CO)NS(=O)(=O)c1ccc(Br)s1 [Example 65, 5-bromo-N-[(1S,2R)-1-(hydroxymethyl)-2-pentyloctyl]thiophene-2-sulfonamide]
fold induction at 20 µg/mL (Conc 20 μg/mL): 1.9

CCC(C)C(NS(=O)(=O)c1ccc(Cl)s1)C(O)CC(C)C (mixture of isomers) [Example 126]
APPI Fold Increase (Conc 10 μg/mL): 5.25 fold and 3.31 fold

CC[C@H](C)[C@@H](CO)NS(=O)(=O)c1cc(Br)c(Cl)s1 [Example 3]
APPI Fold Increase (Conc 10 μg/mL): 1 fold

CCCCCC[C@@H](CC)[C@@H](CO)NS(=O)(=O)c1ccc(Br)s1 [Example 78A, 5-bromo-N-[(1S,2R)-2-ethyl-1-(hydroxymethyl)octyl]thiophene-2-sulfonamide]
fold induction at 20 µg/mL (Conc 20 μg/mL): 5.8

CCC[C@H](c1ccccc1)[C@@H](CO)NS(=O)(=O)c1ccc(Cl)s1 [Example 38, 5-chloro-N-[(1S,2R)-1-(hydroxymethyl)-2-phenylpentyl]thiophene-2-sulfonamide]
fold induction at 20 µg/mL (Conc 20 μg/mL): 4.1

O=S(=O)(N[C@H](CO)c1ccccc1)c1ccc(Cl)s1 [Example 89, 5-Chloro-N-[(S)-2-hydroxy-1-phenylethyl]thiophene-2-sulfonamide]
fold induction at 20 µg/mL (Conc 20 μg/mL): 2.3

CCCCCC[C@@H](c1ccco1)[C@@H](CO)NS(=O)(=O)c1ccc(Br)s1 [Example 73, 5-bromo-N-[(1S,2R)-2-(2-furyl)-1-(hydroxymethyl)octyl]thiophene-2-sulfonamide]
fold induction at 20 µg/mL (Conc 20 μg/mL): 1.9
